Results: article PMC10743929, “Amphiphilic Sialic Acid Derivatives as Potential Dual-Specific Inhibitors of Influenza Hemagglutinin and Neuraminidase” (International Journal of Molecular Sciences, 2023)
Read-outs that look alike come from different tables or passages of the source.

How the values were obtained:
IAV (A/H1N1) = assay: CPE reduction assay, influenza A/H1N1 in MDCK cells; type: cell-based, influenza A virus A/H1N1 (A/Virginia/ATCC3/2009 or A/PR/8); settings: Influenza A virus, H1N1, 72 h
Procedure: (§1) The process of CPE reduction assay for the influenza virus was described previously. The virus strains were A/Virginia/ATCC3/2009, A/PR/8 (A/H1N1), A/Victoria/361/11, A/HK/7/87 (A/H3N2), and B/Ned/537/05 (IBV). On day 0, Madin-Darby canine kidney (MDCK) cells in 96-well plates were infected with influenza virus at a multiplicity of infection (MOI) of 0.0004 plaque forming units (PFU) per cell, and that was incubated at 35 °C for 3 days. After the third day, virus-induced CPE and compound cytotoxicity were scored by microscopy, and the data were confirmed by formazan-based MTS cell viability assay (CellTiter 96® AQueous One Solution Cell Proliferation Assay from Promega, Madison, WI, USA). […] Compound cytotoxicity was expressed as the concentration of the compound causing minimal changes in cell morphology (MCC) and 50% cytotoxic concentration (CC50) based on the MTS assay.

IAV (A/H3N2) = assay: CPE reduction assay, influenza A/H3N2 in MDCK cells; type: cell-based, influenza A virus A/H3N2 (A/Victoria/361/11 or A/HK/7/87); settings: Influenza A virus, H3N2, 72 h
Procedure: as §1

IBV = assay: CPE reduction assay, influenza B in MDCK cells; type: cell-based, influenza B virus (B/Ned/537/05); settings: Influenza B virus, 72 h
Procedure: as §1

in vitro = settings: dog
[1] = tested on: Madin-Darby canine kidney (MDCK) cells; assay: Compound cytotoxicity in MDCK cells (microscopy, MTS); settings: microscopically visible alterations in cell morphology

Work on `CC(=O)N[C@H]1[C@H]([C@H](O)[C@H](O)CO)OC(C(=O)O)=C[C@@H]1N=C(N)N` [Zanamivir, reference compound] yielded an EC50 (IAV (A/H1N1); MTS cell viability assay, day 3, read-out: Antiviral EC50, IAV (A/H1N1), MTS) of 8.5 ± 3.4 µM, an EC50 (IAV (A/H1N1); microscopic scoring of cytopathic effect, day 3, read-out: Antiviral EC50, IAV (A/H1N1), CPE) of 10 ± 3 µM and an EC50 (IAV (A/H3N2); MTS cell viability assay, day 3, read-out: Antiviral EC50, IAV (A/H3N2), MTS) of 1 µM. The EC50 (IAV (A/H3N2); microscopic scoring of cytopathic effect, day 3, read-out: Antiviral EC50, IAV (A/H3N2), CPE) was 1.6 µM, the EC50 (IBV; MTS cell viability assay, day 3, read-out: Antiviral EC50, IBV, MTS) was 4.5 µM and the EC50 (IBV; microscopic scoring of cytopathic effect, day 3, read-out: Antiviral EC50, IBV, CPE) was 2.1 µM. For the same molecule, the CC50 (in vitro) was over 100 µM and the “Cytotoxicity MCC (minimum cytotoxic concentration)” value [1] was over 100 µM.
